Data on 15 compounds can be found in PubChem BioAssay (NCI).

Each structure is given as a SMILES string.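 Each compound was tested at five concentrations against cells in 96-well plates for 48 hours. GI50 marks 50% less growth. Definition used: TGI = concentration required for complete inhibition of growth.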

One test has as its system HCC-2998 colon. In words: NCI tumour cell line growth inhibition, 48 h.
For the compound `O=S(=O)(CCn1c(Sc2ccccc2)c(Sc2ccccc2)c2ccccc21)c1ccccc1`, the TGI is greater than 100 µM.

On to `O=C(Nc1ccc(Cl)cc1)c1cccc(NC2=C(Cl)C(=O)N(Cc3ccccc3)C2=O)c1`, for which the GI50 is 3.83 µM and the TGI worked out at 20 µM.

In the case of `O=C(/C=C/c1ccncc1)c1cc(Cl)ccc1O`, the GI50 is 13.5 µM and the TGI came to 28.4 µM.

For the compound `Cc1cc(/C=C/c2ccc3cc(N(C)C)ccc3[n+]2C)c(C)n1-c1ccccc1`, the GI50 was 0.203 µM and the TGI was 2.64 µM.

Take `CCCC(=O)OC1CC(n2cc(F)c(=O)[nH]c2=O)OC1COP(=O)(OCC(Cl)(Cl)Cl)OCC(Cl)(Cl)Cl` (stereo unspecified): the TGI was found to be 3.34 µM.

Consider `ClCc1cccc(Cn2cnc3ncnc(Cl)c32)c1`, for which the GI50 is 1.68 µM and the TGI was determined as 3.25 µM.

As for `CC(=O)/C(=C\c1cccc([N+](=O)[O-])c1)C(=O)Nc1ccccc1C`, the TGI is greater than 100 µM.

Another test deals with TK-10 renal. In words: NCI tumour cell line growth inhibition, 48 h.
In the case of `Cc1ccc(S(=O)(=O)Nc2ccccc2C(=O)c2ccc(C)c(C)c2)cc1`, the TGI is greater than 100 µM.

`NS(=O)(=O)c1cc(Br)c(N=Nc2ccc(O)c3ncccc23)c(Br)c1`: the TGI was greater than 100 µM.

`O=S(=O)(CCn1c(Sc2ccccc2)c(Sc2ccccc2)c2ccccc21)c1ccccc1` showed a TGI greater than 100 µM.

Consider `O=C(Nc1ccc(Cl)cc1)c1cccc(NC2=C(Cl)C(=O)N(Cc3ccccc3)C2=O)c1`, for which the GI50 is 14.3 µM and the TGI is 30.7 µM.

On to `OCC#Cc1ccccc1C#Cc1ccccc1`, for which the GI50 was 13.6 µM and the TGI worked out at 26.6 µM.

For the compound `Cc1cc(/C=C/c2ccc3cc(N(C)C)ccc3[n+]2C)c(C)n1-c1ccccc1`, the GI50 was 0.301 µM and the TGI was 2.34 µM.

With `CCCC(=O)OC1CC(n2cc(F)c(=O)[nH]c2=O)OC1COP(=O)(OCC(Cl)(Cl)Cl)OCC(Cl)(Cl)Cl` (stereo unspecified), the TGI is greater than 100 µM.

Regarding `ClCc1cccc(Cn2cnc3ncnc(Cl)c32)c1`, the GI50 was 1.76 µM and the TGI was determined as 3.3 µM.

Regarding `OC(c1nc2ccccc2[nH]1)C(O)C(O)C(O)c1nc2ccccc2[nH]1` (stereo unspecified), the TGI is greater than 100 µM.

For `C[C@@H]1CCC2[C@@H](C)[C@@H](OCC(CO[C@H]3OC4O[C@@]5(C)CC[C@H]6[C@H](C)CCC([C@H]3C)[C@@]46OO5)OC(=O)CCC(=O)O)OC3O[C@@]4(C)CC[C@@H]1[C@]32OO4` (stereo partly specified), the GI50 was less than 0.046 µM and the TGI was 29.5 µM.

Compound `CC(C)C(C)/C=C\C(C)C1CCC2C3=CC=C4CC(O)CCC4(C)C3CCC21C` (stereo unspecified) had a TGI greater than 100 µM.

Regarding `COc1cc(/C=C2\CN(S(=O)(=O)c3ccccc3)C/C(=C\c3cc(CN4CCCC4)c(O)c(OC)c3)C2=O)cc(CN2CCCC2)c1O`, the GI50 was 3.18 µM and the TGI turned out to be 7.73 µM.

`CC(=O)/C(=C\c1cccc([N+](=O)[O-])c1)C(=O)Nc1ccccc1C`: the TGI was greater than 100 µM.

For the compound `COc1cc2c3c(n(C)c(=O)c2cc1OC)-c1cc2c(cc1/C3=C\CCN)OCO2`, the GI50 was 1.17 µM and the TGI came out at 6.72 µM.

Another test relates to EKVX NSCLC. In words: NCI tumour cell line growth inhibition, 48 h.
On to `Cc1ccc(S(=O)(=O)Nc2ccccc2C(=O)c2ccc(C)c(C)c2)cc1`, for which the TGI was greater than 100 µM.

Turning to `NS(=O)(=O)c1cc(Br)c(N=Nc2ccc(O)c3ncccc23)c(Br)c1`, the TGI is greater than 100 µM.

`O=S(=O)(CCn1c(Sc2ccccc2)c(Sc2ccccc2)c2ccccc21)c1ccccc1`: the TGI is greater than 100 µM.

`O=C(Nc1ccc(Cl)cc1)c1cccc(NC2=C(Cl)C(=O)N(Cc3ccccc3)C2=O)c1`: the GI50 was 27.3 µM and the TGI is greater than 100 µM.

On to `O=C(/C=C/c1ccncc1)c1cc(Cl)ccc1O`, for which the GI50 is 17.2 µM and the TGI worked out at 54.5 µM.

For `OCC#Cc1ccccc1C#Cc1ccccc1`, the GI50 was 17.6 µM and the TGI came to 34 µM.

Take `Cc1cc(/C=C/c2ccc3cc(N(C)C)ccc3[n+]2C)c(C)n1-c1ccccc1`: the GI50 was 0.102 µM and the TGI was 3.9 µM.

Compound `CCCC(=O)OC1CC(n2cc(F)c(=O)[nH]c2=O)OC1COP(=O)(OCC(Cl)(Cl)Cl)OCC(Cl)(Cl)Cl` (stereo unspecified) registered a TGI greater than 100 µM.

In the case of `ClCc1cccc(Cn2cnc3ncnc(Cl)c32)c1`, the GI50 is 13.7 µM and the TGI is 29.7 µM.

`OC(c1nc2ccccc2[nH]1)C(O)C(O)C(O)c1nc2ccccc2[nH]1` (stereo unspecified) yielded a TGI greater than 100 µM.

Turning to `C[C@@H]1CCC2[C@@H](C)[C@@H](OCC(CO[C@H]3OC4O[C@@]5(C)CC[C@H]6[C@H](C)CCC([C@H]3C)[C@@]46OO5)OC(=O)CCC(=O)O)OC3O[C@@]4(C)CC[C@@H]1[C@]32OO4` (stereo partly specified), the GI50 is 3.03 µM and the TGI is 41 µM.

`CC(C)C(C)/C=C\C(C)C1CCC2C3=CC=C4CC(O)CCC4(C)C3CCC21C` (stereo unspecified) came in with a TGI greater than 64.8 µM.

For the compound `COc1cc(/C=C2\CN(S(=O)(=O)c3ccccc3)C/C(=C\c3cc(CN4CCCC4)c(O)c(OC)c3)C2=O)cc(CN2CCCC2)c1O`, the GI50 is 1.14 µM and the TGI stood at 3.53 µM.

`CC(=O)/C(=C\c1cccc([N+](=O)[O-])c1)C(=O)Nc1ccccc1C` displayed a TGI greater than 100 µM.

As for `COc1cc2c3c(n(C)c(=O)c2cc1OC)-c1cc2c(cc1/C3=C\CCN)OCO2`, the GI50 was 1.71 µM and the TGI worked out at 13.5 µM.

A further test concerns SK-MEL-5 melanoma. In words: NCI tumour cell line growth inhibition, 48 h.
In turn, `Cc1ccc(S(=O)(=O)Nc2ccccc2C(=O)c2ccc(C)c(C)c2)cc1` had a TGI greater than 100 µM.

On to `NS(=O)(=O)c1cc(Br)c(N=Nc2ccc(O)c3ncccc23)c(Br)c1`, for which the TGI was greater than 100 µM.

Turning to `O=S(=O)(CCn1c(Sc2ccccc2)c(Sc2ccccc2)c2ccccc21)c1ccccc1`, the TGI was greater than 100 µM.

For `O=C(Nc1ccc(Cl)cc1)c1cccc(NC2=C(Cl)C(=O)N(Cc3ccccc3)C2=O)c1`, the GI50 is 8.15 µM and the TGI turned out to be 20.9 µM.

For the compound `O=C(/C=C/c1ccncc1)c1cc(Cl)ccc1O`, the GI50 was 19.2 µM and the TGI is 34.4 µM.

On to `OCC#Cc1ccccc1C#Cc1ccccc1`, for which the GI50 was 15.9 µM and the TGI was 31.8 µM.

As to `Cc1cc(/C=C/c2ccc3cc(N(C)C)ccc3[n+]2C)c(C)n1-c1ccccc1`, the GI50 was 0.0835 µM and the TGI came to 0.226 µM.

Regarding `CCCC(=O)OC1CC(n2cc(F)c(=O)[nH]c2=O)OC1COP(=O)(OCC(Cl)(Cl)Cl)OCC(Cl)(Cl)Cl` (stereo unspecified), the TGI was greater than 100 µM.

Turning to `ClCc1cccc(Cn2cnc3ncnc(Cl)c32)c1`, the GI50 is 4.65 µM and the TGI stood at 18.2 µM.

As for `OC(c1nc2ccccc2[nH]1)C(O)C(O)C(O)c1nc2ccccc2[nH]1` (stereo unspecified), the TGI was greater than 100 µM.

As to `C[C@@H]1CCC2[C@@H](C)[C@@H](OCC(CO[C@H]3OC4O[C@@]5(C)CC[C@H]6[C@H](C)CCC([C@H]3C)[C@@]46OO5)OC(=O)CCC(=O)O)OC3O[C@@]4(C)CC[C@@H]1[C@]32OO4` (stereo partly specified), the GI50 was 0.147 µM and the TGI came to 17.5 µM.

`CC(C)C(C)/C=C\C(C)C1CCC2C3=CC=C4CC(O)CCC4(C)C3CCC21C` (stereo unspecified) showed a TGI of 62.3 µM.

On to `CC(=O)/C(=C\c1cccc([N+](=O)[O-])c1)C(=O)Nc1ccccc1C`, for which the TGI is greater than 100 µM.

A further test has as its system SF-268 CNS. In words: NCI tumour cell line growth inhibition, 48 h.
The compound `Cc1ccc(S(=O)(=O)Nc2ccccc2C(=O)c2ccc(C)c(C)c2)cc1` had a TGI greater than 100 µM.

`NS(=O)(=O)c1cc(Br)c(N=Nc2ccc(O)c3ncccc23)c(Br)c1` returned a TGI greater than 100 µM.

Consider `O=S(=O)(CCn1c(Sc2ccccc2)c(Sc2ccccc2)c2ccccc21)c1ccccc1`, for which the TGI is greater than 100 µM.

For the compound `O=C(Nc1ccc(Cl)cc1)c1cccc(NC2=C(Cl)C(=O)N(Cc3ccccc3)C2=O)c1`, the GI50 was 11.6 µM and the TGI amounted to 30.1 µM.

In the case of `O=C(/C=C/c1ccncc1)c1cc(Cl)ccc1O`, the GI50 was 22.1 µM and the TGI was 63.7 µM.

Turning to `OCC#Cc1ccccc1C#Cc1ccccc1`, the GI50 was 17.1 µM and the TGI was 35.3 µM.

Turning to `Cc1cc(/C=C/c2ccc3cc(N(C)C)ccc3[n+]2C)c(C)n1-c1ccccc1`, the GI50 was 0.215 µM and the TGI amounted to 2.87 µM.

Regarding `CCCC(=O)OC1CC(n2cc(F)c(=O)[nH]c2=O)OC1COP(=O)(OCC(Cl)(Cl)Cl)OCC(Cl)(Cl)Cl` (stereo unspecified), the TGI is greater than 31.6 µM.

`ClCc1cccc(Cn2cnc3ncnc(Cl)c32)c1`: the GI50 is 1.66 µM and the TGI amounted to 3.5 µM.

The compound `OC(c1nc2ccccc2[nH]1)C(O)C(O)C(O)c1nc2ccccc2[nH]1` (stereo unspecified) registered a TGI greater than 100 µM.

`C[C@@H]1CCC2[C@@H](C)[C@@H](OCC(CO[C@H]3OC4O[C@@]5(C)CC[C@H]6[C@H](C)CCC([C@H]3C)[C@@]46OO5)OC(=O)CCC(=O)O)OC3O[C@@]4(C)CC[C@@H]1[C@]32OO4` (stereo partly specified) came in with a TGI of 20.1 µM.

`CC(C)C(C)/C=C\C(C)C1CCC2C3=CC=C4CC(O)CCC4(C)C3CCC21C` (stereo unspecified) displayed a TGI greater than 70.2 µM.

Take `COc1cc(/C=C2\CN(S(=O)(=O)c3ccccc3)C/C(=C\c3cc(CN4CCCC4)c(O)c(OC)c3)C2=O)cc(CN2CCCC2)c1O`: the GI50 was 1.45 µM and the TGI amounted to 4.06 µM.

On to `CC(=O)/C(=C\c1cccc([N+](=O)[O-])c1)C(=O)Nc1ccccc1C`, for which the TGI was greater than 100 µM.

With `COc1cc2c3c(n(C)c(=O)c2cc1OC)-c1cc2c(cc1/C3=C\CCN)OCO2`, the GI50 was 0.167 µM and the TGI is 16.6 µM.
